According to ChEMBL document CHEMBL5131479, “Phage display-based discovery of cyclic peptides against the broad spectrum bacterial anti-virulence target CsrA” (Eur J Med Chem, 2022):
Where a SMILES comes first, the peptide text is derived from it. Bridges are numbered along the chain shown (N, C = ends). Triazole bridges read from a SMILES are 1,4-linked. [ ]: non-standard residue; d: D form. Ala(indol-2-yl) = N[C@@H](Cc1cc2ccccc2[nH]1)C(=O)O; Dap(N3) = [N-]=[N+]=NC[C@H](N)C(=O)O; Aha = [N-]=[N+]=NCC[C@H](N)C(=O)O; Pra = C#CC[C@H](N)C(=O)O

Columns and labels:
[1] = Inhibition of 5'-UUCACGGAGAA[flc] mRNA binding to biotinylated His6-tagged Yersinia pseudotuberculosis CsrA measured by fluorescence polarization assay
[2] = target: Carbon storage regulator (Escherichia coli, UniProt P69913); assay: Inhibition of 5'-AGACAAGGAUGU[flc] mRNA binding to biotinylated His6-tagged Escherichia coli CsrA measured by fluorescence polarization assay
Chain of Carbon storage regulator (P69913 whole entry): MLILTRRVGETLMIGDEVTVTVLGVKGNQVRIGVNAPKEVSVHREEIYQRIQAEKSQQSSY

[3] = Inhibition of 5'-UUCACGGAGAA[flc] mRNA binding to biotinylated His6-tagged Yersinia pseudotuberculosis CsrA measured in presence of 5 mM DTT by fluorescence polarization assay
[4] = Binding affinity towards biotinylated His6-tagged Yersinia pseudotuberculosis CsrA measured by Microscale thermophoresis assay (MST)

Molecule | IC50 [1] [µM] | IC50 [2] [µM] | IC50 [3] [µM] | Kd [4] [µM]
CC(C)C[C@@H]1NC(=O)[C@H](CCC(=O)O)NC(=O)[C@H](CO)NC(=O)[C@@H](NC(=O)[C@@H](N)C(C)C)CSSC[C@@H](C(=O)N[C@@H](Cc2cc3ccccc3[nH]2)C(N)=O)NC1=O (H-VCSELC[Ala(indol-2-yl)]-NH2; disulfide 2-6) | 27.6 | – | – | –
CC(=O)N[C@H](C(=O)N[C@H]1CSSC[C@@H](C(=O)N[C@@H](Cc2cc3ccccc3[nH]2)C(N)=O)NC(=O)[C@H](CC(C)C)NC(=O)[C@H](C)NC(=O)[C@H](CO)NC1=O)C(C)C (Ac-VCSALC[Ala(indol-2-yl)]-NH2; disulfide 2-6) | 22.8 | – | – | –
CC(=O)N[C@H]1CSSC[C@@H](C(=O)N[C@@H](Cc2cc3ccccc3[nH]2)C(N)=O)NC(=O)[C@H](CC(C)C)NC(=O)[C@H](CCC(=O)O)NC(=O)[C@H](CO)NC1=O (Ac-CSELC[Ala(indol-2-yl)]-NH2; disulfide 1-5) | 128 | – | – | –
CC(=O)N[C@H](C(=O)N[C@H]1Cc2cnnn2C[C@@H](C(=O)N[C@@H](Cc2c[nH]c3ccccc23)C(N)=O)NC(=O)[C@H](CC(C)C)NC(=O)[C@H](CCC(=O)O)NC(=O)[C@H](CO)NC1=O)C(C)C | 178 | 48.1 | – | –
CC(=O)N[C@H](C(=O)N[C@H]1CSSC[C@@H](C(=O)N[C@@H](Cc2cc3ccccc3[nH]2)C(N)=O)NC(=O)[C@H](CC(C)C)NC(=O)[C@H](CCC(=O)O)NC(=O)[C@H](CO)NC1=O)C(C)C (Ac-VCSELC[Ala(indol-2-yl)]-NH2; disulfide 2-6) | 6.9 | 182 | > 1000 | 10.5
CC[C@H](C)[C@H](NC(=O)[C@H]1CCCCN1C)C(=O)N[C@H](CCc1nc(C(=O)N[C@@H](Cc2ccc(O)cc2)C[C@H](C)C(=O)O)cs1)C(C)C | 11 | – | – | –
CC(=O)N[C@@H](C)C(=O)N[C@H]1CSSC[C@@H](C(=O)N[C@@H](Cc2cc3ccccc3[nH]2)C(N)=O)NC(=O)[C@H](CC(C)C)NC(=O)[C@H](CCC(=O)O)NC(=O)[C@H](CO)NC1=O (Ac-ACSELC[Ala(indol-2-yl)]-NH2; disulfide 2-6) | 114 | – | – | –
Ac-VASELAW-NH2 | > 1000 | – | – | –
CC(=O)N[C@H](C(=O)N[C@H]1Cc2cn(nn2)C[C@@H](C(=O)N[C@@H](Cc2c[nH]c3ccccc23)C(N)=O)NC(=O)[C@H](CC(C)C)NC(=O)[C@H](CCC(=O)O)NC(=O)[C@H](CO)NC1=O)C(C)C (Ac-V[Pra]SEL[Dap(N3)]W-NH2; triazole 2-6) | 35.3 | 4.9 | – | –
CC(=O)N[C@H](C(=O)N[C@H]1CSSC[C@@H](C(=O)N[C@@H](Cc2cc3ccccc3[nH]2)C(N)=O)NC(=O)[C@H](C)NC(=O)[C@H](CCC(=O)O)NC(=O)[C@H](CO)NC1=O)C(C)C (Ac-VCSEAC[Ala(indol-2-yl)]-NH2; disulfide 2-6) | 57.9 | – | – | –
CC(=O)N[C@H](C(=O)N[C@H]1Cn2cc(nn2)C[C@@H](C(=O)N[C@@H](Cc2c[nH]c3ccccc23)C(N)=O)NC(=O)[C@H](CC(C)C)NC(=O)[C@H](CCC(=O)O)NC(=O)[C@H](CO)NC1=O)C(C)C (Ac-V[Dap(N3)]SEL[Pra]W-NH2; triazole 2-6) | 92.8 | 6.8 | – | –
CC(=O)N[C@H](C(=O)N[C@H]1Cc2cnnn2CC[C@@H](C(=O)N[C@@H](Cc2c[nH]c3ccccc23)C(N)=O)NC(=O)[C@H](CC(C)C)NC(=O)[C@H](CCC(=O)O)NC(=O)[C@H](CO)NC1=O)C(C)C | 337 | 51.6 | – | –
CC(=O)N[C@H](C(=O)N[C@H]1CSSC[C@@H](C(=O)N[C@@H](Cc2cc3ccccc3[nH]2)C(N)=O)NC(=O)[C@H](CC(C)C)NC(=O)[C@H](CCC(=O)O)NC(=O)[C@H](C)NC1=O)C(C)C (Ac-VCAELC[Ala(indol-2-yl)]-NH2; disulfide 2-6) | > 1000 | – | – | –
CC(=O)N[C@H](C(=O)N[C@H]1Cc2cn(nn2)CC[C@@H](C(=O)N[C@@H](Cc2c[nH]c3ccccc23)C(N)=O)NC(=O)[C@H](CC(C)C)NC(=O)[C@H](CCC(=O)O)NC(=O)[C@H](CO)NC1=O)C(C)C (Ac-V[Pra]SEL[Aha]W-NH2; triazole 2-6) | 76 | 3.4 | – | –
CC(=O)N[C@H](C(=O)N[C@H]1CSSC[C@@H](C(N)=O)NC(=O)[C@H](CC(C)C)NC(=O)[C@H](CCC(=O)O)NC(=O)[C@H](CO)NC1=O)C(C)C (Ac-VCSELC-NH2; disulfide 2-6) | > 1000 | – | – | –
CC(=O)N[C@H](C(=O)N[C@H]1CSSC[C@@H](C(=O)N[C@@H](C)C(N)=O)NC(=O)[C@H](CC(C)C)NC(=O)[C@H](CCC(=O)O)NC(=O)[C@H](CO)NC1=O)C(C)C (Ac-VCSELCA-NH2; disulfide 2-6) | > 500 | – | – | –
CC(=O)N[C@H](C(=O)N[C@H]1CCn2nncc2C[C@@H](C(=O)N[C@@H](Cc2c[nH]c3ccccc23)C(N)=O)NC(=O)[C@H](CC(C)C)NC(=O)[C@H](CCC(=O)O)NC(=O)[C@H](CO)NC1=O)C(C)C | 309 | 83.4 | – | –
CC(=O)N[C@H](C(=O)N[C@H]1CSSC[C@@H](C(=O)N[C@@H](Cc2cc3ccccc3[nH]2)C(=O)O)NC(=O)[C@H](CC(C)C)NC(=O)[C@H](CCC(=O)O)NC(=O)[C@H](CO)NC1=O)C(C)C (Ac-VCSELC[Ala(indol-2-yl)]-OH; disulfide 2-6) | 17.4 | – | – | –
